This note sets out measurements from patent US20060241177A1, “Novel compounds, pharmaceutical compositions containing same, and methods of use for same” (priority 2002, published 2006).

The subject of experiment [1] is MCF-7 human breast cancer cells. Put plainly: [14C]acetate incorporation into total lipids (fatty acid synthesis in whole cells). The experiment is classed as cell-based. The conditions noted are these: for IC50: Homo sapiens, MCF7, MCF-7 cells; for 14C (IC50): MCF-7 cells. As to the method: Measurement of [^14C]Acetate Incorporation into Total Lipids and Determination of IC50 of Compounds
This assay measures the incorporation of [^14C] acetate into total lipids and is a measure of fatty acid synthesis pathway activity in vitro. It is utilized to measure inhibition of fatty acid synthesis in vitro.
MCF-7 human breast cancer cells cultured as above, are plated at 5×10^4 cells per well in 24-well plates. Following overnight incubation, the compounds to be tested, solubilized in DMSO, are added at 5, 10, and 20 μg/ml in triplicate, with lower concentrations tested if necessary. DMSO is added to triplicate wells for a vehicle control. C75 is run at 5 and 10 μg/ml in triplicate as positive controls. After 4 hours of incubation, 0.25 μCi of [^14C]acetate (10 μl volume) is added to each well.
After 2 hours of additional incubation, medium is aspirated from the wells and 800 μl of chloroform:methanol (2:1) and 700 μl of 4 mM MgCl2 is added to each well. Contents of each well are transferred to 1.5 ml Eppendorf tubes, and spun at full-speed for 2 minutes in a high-speed Eppendorf Microcentrifuge 5415D. After removal of the aqueous (upper) layer, an additional 700 μl of chloroform:methanol (2:1) and 500 μl of 4 mM MgCl2 are added to each tube and then centrifuged for 1 minutes as above. The aqueous layer is removed with a Pasteur pipette and discarded. An additional 400 μl of chloroform:methanol (2:1) and 200 μl of 4 mM MgCl2 are added to each tube, then centrifuged and aqueous layer is discarded. The lower (organic) phase is transferred into a scintillation vial and dried at 40° C. under N2 gas. Once dried, 3 ml of scintillant (APB #NBC5104) is added and vials are counted for ^14C. The Beckman Scintillation counter calculates the average cpm values for triplicates.
The IC50 for the compounds is defined as the concentration of drug leading to a 50% reduction in [^14C] acetate incorporation into lipids compared to controls. This is determined by plotting the average cpm for each inhibitor concentration tested, performing linear regression and computing the best-fit line, r^2 values, and 95% confidence intervals. The average cpm values are computed by the Beckman scintillation counter (model LS6500) for each compound concentration. Computation of linear regression, best-fit line, r^2, and 95% confidence intervals are calculated using Prism Version 3.0 (Graph Pad Software).

Another experiment has as its target T1, purified human FAS (Homo sapiens, UniProt P49327).
T1 construct: Human FAS was purified from cultured ZR-75-1 human breast cancer cells; endogenous in cells; host or cells: ZR-75-1 human breast cancer cells (ATCC); endogenous enzyme purified by PEG precipitation and Mono Q chromatography
Put plainly: Measurement of FAS enzymatic activity (NADPH oxidation) and IC50. In kind it is biochemical. Particulars: purified human FAS from ZR-75-1 cells, malonyl-CoA dependent NADPH oxidation. As to the method: Human FAS was purified from cultured ZR-75-1 human breast cancer cells obtained from the American Type Culture Collection. The procedure, adapted from Linn et al., 1981, and Kuhajda et al, 1994, utilizes hypotonic lysis, successive polyethyleneglycol (PEG) precipitations, and anion exchange chromatography. ZR-75-1 cells are cultured at 37° C. with 5% CO2 in RPMI culture medium with 10% fetal bovine serum, penicillin and streptomycin.
Ten T150 flasks of confluent cells are lysed with 1.5 ml lysis buffer (20 mM Tris-HCl pH 7.5, 1 mM EDTA, 0.1 mM phenylmethanesulfonyl fluoride (PMSF), 0.1% Igepal CA-630) and dounce homogenized on ice for 20 strokes. The lysate is centrifuged in JA-20 rotor (Beckman) at 20,000 rpm for 30 minutes at 4° C. and the supernatant is brought to 42 ml with lysis buffer. A solution of 50% PEG 8000 in lysis buffer is added slowly to the supernatant to a final concentration of 7.5%. After rocking for 60 minutes at 4° C., the solution is centrifiged in JA-20 rotor (Beckman) at 15,000 rpm for 30 minutes at 4° C. Solid PEG 8000 is then added to the supernatant to a final concentration of 15%. After the rocking and centrifugation is repeated as above, the pellet is resuspended overnight at 4° C. in 10 ml of Buffer A (20 mM K2HPO4, pH 7.4). After 0.45 μM filtration, the protein solution is applied to a Mono Q 5/5 anion exchange column (Pharmacia). The column is washed for 15 minutes with buffer A at 1 ml/minute, and bound material is eluted with a linear 60-ml gradient over 60 minutes to 1 M KCl. FAS (MW˜270 kD) typically elutes at 0.25 M KCl in three 0.5 ml fractions identified using 4-15% SDS-PAGE with Coomassie G250 stain (Bio-Rad). FAS protein concentration is determined using the Coomassie Plus Protein Assay Reagent (Pierce) according to manufacturer's specifications using BSA as a standard This procedure results in substantially pure preparations of FAS (>95%) as judged by Coomassie-stained gels.
Measurement of FAS Enzymatic Activity and Determination of the IC50 of the Compounds
FAS activity is measured by monitoring the malonyl-CoA dependent oxidation of NADPH spectrophotometrically at OD340 in 96-well plates (Dils et al and Arslanian et at, 1975). Each well contains 2 μg purified FAS, 100 mM K2HPO4, pH 6.5, 1 mM dithiothreitol (Sigma), and 187.5 μM β-NADPH (Sigma). Stock solutions of inhibitors are prepared in DMSO at 2, 1, and 0.5 mg/ml resulting in final concentrations of 20, 10, and 5 μg/ml when 1 μl of stock is added per well. For each experiment, cerulenin (Sigma) is run as a positive control along with DMSO controls, inhibitors, and blanks (no FAS enzyme) all in duplicate.
The assay is performed on a Molecular Devices SpectraMax Plus Spectrophotometer. The plate containing FAS, buffers, inhibitors, and controls are placed in the spectrophotometer heated to 37° C. Using the kinetic protocol, the wells are blanked on duplicate wells containing 100 μl of 100 mM K2HPO4, pH 6.5 and the plate is read at OD340 at 10 sec intervals for 5 minutes to measure any malonyl-CoA independent oxidation of NADPH. The plate is removed from the spectrophotometer and malonyl-CoA (67.4 μM, final concentration per well) and acetyl-CoA (61.8 μM, final concentration per well) are added to each well except to the blanks. The plate is read again as above with the kinetic protocol to measure the malonyl-CoA dependent NADPH oxidation. The difference between the Δ OD340 for the malonyl-CoA dependent and non-malonyl-CoA dependent NADPH oxidation is the specific FAS activity. Because of the purity of the FAS preparation, non-malonyl-CoA dependent NADPH oxidation is negligible.
The IC50 for the compounds against FAS is determined by plotting the Δ OD340 for each inhibitor concentration tested, performing linear regression and computing the best-fit line, r^2 values, and 95% confidence intervals. The concentration of compound yielding 50% inhibition of FAS is the IC50. […]

In brackets after ≈: the same amount, converted by molar mass.

T1 sequence (P49327 whole entry): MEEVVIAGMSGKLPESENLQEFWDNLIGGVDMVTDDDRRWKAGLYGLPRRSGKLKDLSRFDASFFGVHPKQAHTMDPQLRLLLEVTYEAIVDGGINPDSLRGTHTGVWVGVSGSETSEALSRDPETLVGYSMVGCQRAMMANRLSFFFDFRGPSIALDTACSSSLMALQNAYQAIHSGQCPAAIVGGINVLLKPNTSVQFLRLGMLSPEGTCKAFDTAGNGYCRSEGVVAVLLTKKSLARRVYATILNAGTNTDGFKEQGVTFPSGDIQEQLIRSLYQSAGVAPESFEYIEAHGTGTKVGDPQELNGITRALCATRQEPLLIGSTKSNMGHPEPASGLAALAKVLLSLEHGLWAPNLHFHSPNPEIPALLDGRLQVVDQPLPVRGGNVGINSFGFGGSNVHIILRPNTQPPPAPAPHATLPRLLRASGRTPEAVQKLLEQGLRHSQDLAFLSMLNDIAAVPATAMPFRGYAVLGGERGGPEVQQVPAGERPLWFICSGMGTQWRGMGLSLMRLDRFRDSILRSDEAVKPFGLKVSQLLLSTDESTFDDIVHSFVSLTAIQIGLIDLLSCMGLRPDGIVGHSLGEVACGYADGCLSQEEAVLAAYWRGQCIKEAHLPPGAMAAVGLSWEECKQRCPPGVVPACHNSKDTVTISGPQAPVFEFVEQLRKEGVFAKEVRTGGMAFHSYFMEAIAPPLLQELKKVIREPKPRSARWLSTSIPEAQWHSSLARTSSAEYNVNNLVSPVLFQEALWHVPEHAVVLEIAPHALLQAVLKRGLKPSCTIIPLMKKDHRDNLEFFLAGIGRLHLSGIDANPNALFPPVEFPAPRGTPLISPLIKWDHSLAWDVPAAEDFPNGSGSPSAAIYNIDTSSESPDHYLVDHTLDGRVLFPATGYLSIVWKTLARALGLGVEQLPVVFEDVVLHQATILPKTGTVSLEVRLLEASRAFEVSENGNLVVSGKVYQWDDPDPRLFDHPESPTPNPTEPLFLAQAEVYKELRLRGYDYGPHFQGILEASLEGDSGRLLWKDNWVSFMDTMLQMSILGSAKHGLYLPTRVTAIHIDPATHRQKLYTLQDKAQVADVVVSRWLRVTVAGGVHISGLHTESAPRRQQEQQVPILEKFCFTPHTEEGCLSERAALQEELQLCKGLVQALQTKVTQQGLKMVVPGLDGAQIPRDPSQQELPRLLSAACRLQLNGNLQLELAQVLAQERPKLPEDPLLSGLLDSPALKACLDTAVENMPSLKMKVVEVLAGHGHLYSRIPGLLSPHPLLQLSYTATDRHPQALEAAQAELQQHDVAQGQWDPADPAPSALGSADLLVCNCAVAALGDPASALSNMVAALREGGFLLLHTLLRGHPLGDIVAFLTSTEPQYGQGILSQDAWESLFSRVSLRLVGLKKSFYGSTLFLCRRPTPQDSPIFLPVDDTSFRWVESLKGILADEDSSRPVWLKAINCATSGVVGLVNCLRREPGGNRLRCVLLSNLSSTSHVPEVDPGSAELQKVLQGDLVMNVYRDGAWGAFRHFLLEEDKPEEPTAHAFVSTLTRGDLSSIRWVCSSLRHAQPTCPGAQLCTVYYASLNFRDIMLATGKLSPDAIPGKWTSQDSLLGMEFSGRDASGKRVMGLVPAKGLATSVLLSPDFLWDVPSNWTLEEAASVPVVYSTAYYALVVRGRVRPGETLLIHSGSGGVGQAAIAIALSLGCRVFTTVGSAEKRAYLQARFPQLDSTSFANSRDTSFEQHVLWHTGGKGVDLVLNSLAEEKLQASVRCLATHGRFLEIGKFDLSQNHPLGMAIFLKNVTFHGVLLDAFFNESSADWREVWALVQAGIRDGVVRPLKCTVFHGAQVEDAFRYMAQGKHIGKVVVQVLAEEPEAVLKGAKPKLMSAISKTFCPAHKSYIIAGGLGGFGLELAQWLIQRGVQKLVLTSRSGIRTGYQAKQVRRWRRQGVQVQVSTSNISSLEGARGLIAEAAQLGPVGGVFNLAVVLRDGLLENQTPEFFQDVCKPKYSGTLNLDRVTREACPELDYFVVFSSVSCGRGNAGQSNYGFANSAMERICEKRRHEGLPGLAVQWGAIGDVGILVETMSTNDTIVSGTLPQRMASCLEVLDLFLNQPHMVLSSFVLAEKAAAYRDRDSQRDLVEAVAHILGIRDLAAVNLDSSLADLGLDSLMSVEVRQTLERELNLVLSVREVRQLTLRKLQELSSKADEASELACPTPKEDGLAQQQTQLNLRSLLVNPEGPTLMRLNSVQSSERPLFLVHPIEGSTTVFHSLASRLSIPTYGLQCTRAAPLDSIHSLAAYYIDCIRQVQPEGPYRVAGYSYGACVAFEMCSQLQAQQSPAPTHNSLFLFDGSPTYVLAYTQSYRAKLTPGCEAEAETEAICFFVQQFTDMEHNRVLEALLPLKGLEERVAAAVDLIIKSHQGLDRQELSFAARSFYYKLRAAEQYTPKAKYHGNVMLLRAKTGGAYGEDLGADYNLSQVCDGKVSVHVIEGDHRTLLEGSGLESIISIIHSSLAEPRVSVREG

The term IC50 denotes the concentration that inhibits the measured activity by half. Consider `CCCCCCCCC1OC(=O)[C@@H](C)[C@H]1C(=O)O` (stereo partly drawn), for which half-maximal inhibition in experiment [1] (IC50) required 31 µg/mL (≈ 121 µM). The “FAS (IC50)” value on purified human FAS is listed as “Neg”.
Regarding `CCCCCCCCC1OC(=O)[C@H](C)[C@H]1C(=O)O` (stereo partly drawn), the “14C (IC50)” value in experiment [1] was “Neg”. Besides, the “FAS (IC50)” value on purified human FAS is listed as “Neg”.
For `C=CCNC(=O)C1=C(C)C(=O)O[C@H]1CCCCCCCC`, in experiment [1], the “14C (IC50)” value was “Neg (stim)”. The same compound had an IC50 at purified human FAS of 317 µM.
Compound `C=CCNC(=O)[C@@H]1C(=C)C(=O)O[C@H]1CCCCCCCC` (racemic) showed an IC50 in experiment [1] of 0.75 ± 0.4 µg/mL (≈ 2.56 µM). Also, at purified human FAS, the “FAS (IC50)” value is “Neg”.
With `C=CCNC(=O)[C@H]1[C@H](CCCCCCCC)OC(=O)[C@H]1C` (racemic), in experiment [1], the midpoint of inhibition, the IC50, lay at 25.7 µg/mL (≈ 87 µM). For the same compound, the “FAS (IC50)” value on purified human FAS was “Neg”.
As to `C=CCNC(=O)[C@H]1[C@H](CCCCCCCC)OC(=O)[C@@H]1C` (racemic), the “14C (IC50)” value in experiment [1] is recorded as “Neg”. The compound further gave an IC50 at purified human FAS of 450 µM.
As to `C=CCNC(=O)[C@@H]1C(=C)C(=O)O[C@H]1CCCCCC` (racemic), the values for the IC50 (in experiment [1]; against purified human FAS) were 3.3 µg/mL (≈ 12.4 µM) and 305 µM, respectively.
For `C=CCNC(=O)[C@@H]1C(=C)C(=O)O[C@H]1CCCC` (racemic), the results for the IC50 (in experiment [1]; against purified human FAS) were 1.8 ± 0.3 µg/mL (≈ 7.59 µM) and 451 µM, respectively.
In experiment [1], `C=C1C(=O)O[C@@H](CCCCCCCC)[C@@H]1C(=O)NCCO` (racemic) registered an IC50 of 2.3 ± 1.3 µg/mL (≈ 7.73 µM). Further, the “FAS (IC50)” value at purified human FAS is “Neg”.
Compound `C=C1C(=O)O[C@@H](CCCCCCCC)[C@@H]1C(=O)NCC(=O)OC` (racemic) yielded an IC50 in experiment [1] of 1.1 ± 0.03 µg/mL (≈ 3.38 µM). In addition, the “FAS (IC50)” value on purified human FAS is recorded as “Neg”.
Regarding `C=C1C(=O)O[C@@H](CCCCCCCC)[C@@H]1C(=O)NCC(=O)O` (racemic), on purified human FAS, the “FAS (IC50)” value was “Neg”.
